Measurements from US20100074934A1, “MEDICAL IMPLANTS WITH A COMBINATION OF COMPOUNDS” (priority 2006, published 2010).

Tested on: chick chorioallantoic membrane (CAM)
Test: chick chorioallantoic membrane (CAM) assay, inhibition of angiogenesis
Format: in vivo
Set-up: key: 0: normal vascularity; 1: lacking some microvascular movement; small avascular zone approximately 2 mm in diameter; 3: avascularity extending beyond the disk (6 mm in diameter)
Conditions: 2 day exposure
Method: Paclitaxel, dipyridamole, and a combination of paclitaxel and dipyridimole were tested in a chick chorioallantoic membrane (CAM) assay (A. Cevik Tufan and N. Lalae Satirglu-Tufanm Current Cancer Drug Targets, 2005, 5: 249-266) to measure inhibition of angiogenesis by the compounds.
Fertilized, domestic chick embryos were incubated for 4 days prior to shell-less culturing. In this procedure, the egg contents were emptied by cracking the shell, and allowing the contents of the egg to gently slide out. The egg contents were emptied into sterilized petri dishes and then covered with petri dish covers. These were then placed into an incubator at 37 degrees and 90% relative humidity for 4 days.
Paclitaxel (Hauser Lot 1492-16199A) was fixed at concentrations of 0.3 μg and 1 μg per 10 ul aliquot of 0.5% aqueous methylcellulose (disc). Dipyridamole (Aldrich 285676, Lot 064K157) was added to each fixed dose of paclitaxel at specific molar ratios of 1:3, 1:10, 1:1, 3:1, 10:1. Neat solvent (DMSO), paclitaxel at 0.3 μg and 1 μg per disc and the dipyridamole at 5.92 μg per disc were used as the individual controls. Ten microliter aliquots of this solution were dried on parafilm for 3 hours forming disks 2 mm in diameter. The dried disks containing the combination ratios and controls were then carefully placed at the growing edge of each CAM at day 7 of incubation. After a 2 day exposure ([…]) the vasculature was examined with the aid of a stereomicroscope. Liposyn II, a white opaque solution, was injected into the CAM to increase the visibility of the vascular details.
This imaging setup was used at a magnification of 160× which permitted the direct visualization of blood cells within the capillaries; thereby blood flow in areas of interest may be easily assessed and recorded. For this study, the inhibition of angiogenesis was defined as an area of the CAM (measuring 2-6 mm in diameter) lacking a capillary network and vascular blood flow. Throughout the experiments, avascular zones were assessed on a 4 point avascular gradient (Table 1). This scale represents the degree of overall inhibition with maximal inhibition represented as a 3 on the avascular gradient scale.

Structure (SMILES) | Score (avascular gradient scale) (paclitaxel 1 μg/10 μL disc alone) | Score (avascular gradient scale) (dipyridamole 0.02 μg/10 μL disc alone) | Score (avascular gradient scale) (dipyridamole 0.06 μg/10 μL disc alone) | Score (avascular gradient scale) (dipyridamole 5.92 μg/10 μL disc alone)
CC(=O)O[C@H]1C(=O)[C@@]2(C)[C@H]([C@H](OC(=O)c3ccccc3)[C@]3(O)C[C@H](OC(=O)[C@H](O)[C@@H](NC(=O)c4ccccc4)c4ccccc4)C(C)=C1C3(C)C)[C@]1(OC(C)=O)CO[C@@H]1C[C@@H]2O [Paclitaxel (control), paclitaxel] | 2 | – | – | –
OCCN(CCO)c1nc(N2CCCCC2)c2nc(N(CCO)CCO)nc(N3CCCCC3)c2n1 [Dipyridamole (control), 2,6-bis(diethanolamino)-4,8-dipiperidinopyrimido(5,4-d) pyrimidine] | – | 0 | 0 | 0
